`Cc1nnc2n1-c1sc(CC(=O)N3CCOCC3)cc1C(c1ccccc1Cl)=NC2C` (centres undefined) gave a melting point of 126 to 129 °C.
For `CN1C(=O)CC[C@]2(C)c3ccc(Sc4cnccn4)cc3CC[C@@H]12`, the melting point was 94 to 95 °C.
Compound `NCCCCN1C(=O)NC(c2ccccc2)(c2ccccc2)C1=O` has a melting point of 137 to 138 °C.
`O=C(O)/C=C/C=C(c1cccc(C(F)(F)F)c1)c1cccc(C(F)(F)F)c1` gave a melting point of 110 to 112 °C.
For `CS(=O)(=O)NC(=O)NCCCCC1CCSS1` (centres undefined), the melting point was 125 to 127 °C.
Work on `Cn1ncnc1COc1nn2c(-c3ccccc3F)nnc2cc1C1(C)CCOCC1` yielded a melting point of 191 °C.
In the case of `CC(C)(C)c1ccc(C(O)CCCN2CCC(C(O)c3nc4ccccc4n3Cc3ccc(F)cc3)CC2)cc1` (centres undefined), the melting point is reported as 87 to 90 °C.
For `CC(C)c1ccc2c(=O)cc(C(=O)O)[nH]c2c1`, the melting point was over 240 °C.
For `OCC1OC(n2cnc3c(NCCc4cn(Cc5ccc(Cl)cc5)c5ccccc45)ncnc32)C(O)C1O` (centres undefined), the melting point was 181 °C.
`CCNc1c([N+](=O)[O-])cc2c(=O)c(C(=O)O)cn(-c3cc(N)c(F)cc3F)c2c1C` showed a melting point of 250 to 254 °C.
Compound `CC(C)(C)c1noc(-c2cccc(S(C)(=O)=O)n2)n1` has a melting point of 165 to 167 °C.
With `Cc1nc(CO)c2n1-c1ccc(Cl)cc1C(c1ccccc1F)=NC2` the melting point was 233 to 235 °C.
Compound `COC(=O)C(Cc1ccccc1)NC(=O)c1cc2cc(Cl)ccc2[nH]1` (centres undefined) has a melting point of 156 to 157 °C.
In the case of `O=C(O)CCCNC(=O)c1ccccc1NC(=O)c1ccccc1Br`, the melting point is reported as 117 to 118 °C.
Compound `N#CCC(=O)Nc1ccnn1-c1c(Cl)cc(C(F)(F)F)cc1Cl` has a melting point of 169 to 175 °C.
With `COc1ccc(CONC(=O)c2nc(-c3ccc(Cl)c(OC)c3F)cc(N)c2Cl)cc1` the melting point was 142 to 145 °C.
In the case of `CC#CC(C)(C)NC(=O)C(COC)Oc1ccc2ccncc2c1` (centres undefined), the melting point is reported as 155 to 156 °C.
`O=C(OCc1ccccc1)c1ccc(OCc2ccccc2)cc1OCc1ccccc1` gave a melting point of 118 to 120 °C.
Compound `CCCCOc1ccc(Cl)cc1C(=O)NCCc1ccc(CC(=O)O)cc1` has a melting point of 104 to 105 °C.
Compound `O=C1N(Cc2nsc(Cl)n2)c2ccccc2C12COc1cc3c(cc12)OCO3` (centres undefined) has a melting point of 114 to 116 °C.
For `Cc1ccn(-c2cc(Nc3c(Cl)cc(Cl)cc3Cl)nc(C)n2)n1`, the melting point was 245 to 247 °C.
Compound `CC(C)(O)CCCCCc1cccc(CCc2ccc(O)c(CO)c2)c1` has a melting point of 73 to 75 °C.
Work on `N#CC(=CNc1ccccc1)Cc1cnc2ccccc2c1` yielded a melting point of 202 to 203 °C.
For `Cc1ccc(NC(=S)N2CCC(O)C2)c(C)c1` (centres undefined), the melting point was 164 to 166 °C.
Work on `CC(=O)C(C)(C)C(C=C(Cl)C(F)(F)F)OS(C)(=O)=O` (centres undefined) yielded a melting point of 50 to 52 °C.
In the case of `O=C1CCC(N2C(=O)c3cccc(NCC(=O)NC4CC4)c3C2=O)C(=O)N1` (centres undefined), the melting point is reported as 240 to 242 °C.
Compound `CC(=O)Nc1cccc(C=Cc2nc3c(c(=O)n(C)c(=O)n3C)n2C)c1` has a melting point of over 300 °C.
In the case of `CCCCC1Cc2c(c3cccnc3n(-c3ccccc3)c2=O)O1` (centres undefined), the melting point is reported as 179 to 180 °C.
`Brc1ccc(-c2cnc(-c3ccccc3)nc2)cc1` showed a melting point of 194 °C.
Compound `O=C(CCl)Nc1ccc2c(c1NC(=O)Cc1ccccc1)C(=O)c1ccccc1C2=O` has a melting point of 184 to 185 °C.
In the case of `Cc1ccc2c(c1)nnn2CNc1ccccc1`, the melting point is reported as 149 to 152 °C.
Compound `NC(C(=O)c1ccccc1)[N+](=O)[O-]` (centres undefined) has a melting point of 110 to 111 °C.
With `C=C(C)c1ccc(O)cc1` the melting point was 167 to 168 °C.
Work on `CC(C)(C#N)c1cc(-n2cncc2C#N)cc(C(C)(C)C#N)c1` yielded a melting point of 88 to 90 °C.
For `CNC(=O)Cc1c(-c2ccc(C)cc2)nc2n(C)c3ccccc3n12`, the melting point was 251 to 252 °C.
For `CCCCCCS(=O)C1CC(=O)N1CC(=O)CCc1ccccc1` (centres undefined), the melting point was 154 to 155 °C.
`ClCc1nc(NCc2ccccn2)c2c(-c3ccccc3)csc2n1` gave a melting point of 97 to 99 °C.
Work on `N#Cc1c(N2CCN(C(=O)c3cccs3)CC2)c2cc(F)cnc2[nH]c1=O` yielded a melting point of 244 °C.
`COc1ccc(CNC(=O)CCC(=O)c2ccc3[nH]c4ncc(Cl)cc4c3c2)cc1` gave a melting point of 228 °C.

— a melting point compilation (Tetko et al.; mined from patent text by program, amines drawn as free bases though some values may be those of a salt)
